Reference: ChEMBL document CHEMBL4196244, “Matrine-Type Alkaloids from the Roots of Sophora flavescens and Their Antiviral Activities against the Hepatitis B Virus” (J Nat Prod, 2018)
The source made the active and inactive calls. The calls are words filed in the database; no cut-off is given here.

Legend:
[1] = tested on: Hepatitis B virus; assay: Antiviral activity against HBV infected in human HepG2.2.15 cells assessed as inhibition of HBsAg secretion at 0.4 mM supplemented with fresh medium containing compound every 3 days for 9 days measured after 9 days by ELISA relative to control; type: functional
[2] = tested on: Hepatitis B virus; assay: Antiviral activity against HBV infected in human HepG2.2.15 cells assessed as inhibition of HBeAg secretion at 0.4 mM supplemented with fresh medium containing compound every 3 days for 9 days measured after 9 days by ELISA relative to control; type: functional
[3] = Cytotoxicity against human HepG2.2.15 cells assessed as growth inhibition at 0.8 mM by MTT assay relative to control; type: cell-based, HepG2 2.2.15; settings: read-out: GI
[4] = tested on: Hepatitis B virus; assay: Antiviral activity against HBV infected in human HepG2.2.15 cells assessed as inhibition of HBsAg secretion at 0.8 mM supplemented with fresh medium containing compound every 3 days for 9 days measured after 9 days by ELISA relative to control; type: functional
[5] = tested on: Hepatitis B virus; assay: Antiviral activity against HBV infected in human HepG2.2.15 cells assessed as inhibition of HBeAg secretion at 0.8 mM supplemented with fresh medium containing compound every 3 days for 9 days measured after 9 days by ELISA relative to control; type: functional
[6] = Cytotoxicity against human HepG2.2.15 cells assessed as growth inhibition at 1 mM by MTT assay relative to control; type: cell-based, HepG2 2.2.15; settings: read-out: GI
[7] = tested on: Hepatitis B virus; assay: Antiviral activity against HBV infected in human HepG2.2.15 cells assessed as inhibition of HBsAg secretion at 0.2 mM supplemented with fresh medium containing compound every 3 days for 9 days measured after 9 days by ELISA relative to control; type: functional
[8] = tested on: Hepatitis B virus; assay: Antiviral activity against HBV infected in human HepG2.2.15 cells assessed as inhibition of HBeAg secretion at 0.2 mM supplemented with fresh medium containing compound every 3 days for 9 days measured after 9 days by ELISA relative to control; type: functional
[9] = Cytotoxicity against human HepG2.2.15 cells assessed as growth inhibition at 0.4 mM by MTT assay relative to control; type: cell-based, HepG2 2.2.15; settings: read-out: GI
[10] = tested on: Hepatitis B virus; assay: Antiviral activity against HBV infected in human HepG2.2.15 cells assessed as inhibition of HBsAg secretion at 1 mM supplemented with fresh medium containing compound every 3 days for 9 days measured after 9 days by ELISA relative to control; type: functional
[11] = tested on: Hepatitis B virus; assay: Antiviral activity against HBV infected in human HepG2.2.15 cells assessed as inhibition of HBeAg secretion at 1 mM supplemented with fresh medium containing compound every 3 days for 9 days measured after 9 days by ELISA relative to control; type: functional

| SMILES | inhibition (INH) [1] [%] | inhibition (INH) [2] [%] | inhibition at 800 µM [3] [%] | also measured |
| --- | --- | --- | --- | --- |
| O=C1[C@@H](O)CC[C@@H]2[C@H]3CCCN4CCC[C@@H](CN12)[C@@H]34 | 33.2 | 18.5 | ≥ 25 | – |
| O=C1CCC[C@@H]2[C@H]3CCCN4CCC[C@H](CN12)[C@H]34 | 13.8 | – | ≥ 25 | inhibition [2]: inactive |
| O=c1cccc2n1C[C@@H]1CCCN3CCC[C@H]2[C@H]13 | – | – | – | inhibition (INH) [4]: 29.5%; inhibition (INH) [5]: 13.5%; inhibition at 1000 µM [6]: ≥ 25% |
| O=C1CCC[C@@H]2[C@H]3CCCN4CCC[C@@](O)(CN12)[C@@H]34 | – | – | – | inhibition (INH) [7]: 33.8%; inhibition (INH) [8]: 28.4%; inhibition at 400 µM [9]: ≥ 25% |
| O=C1CCC[C@@H]2[C@H]3CCC[N+]4([O-])CCC[C@@H](CN12)[C@@H]34 (stereo partly specified) [OXYMATRINE] | 38.3 | 20.3 | ≥ 25 | – |
| O=C1CC[C@H]2C3=C(CCCN13)CN1C(=O)CCC[C@H]21 | – | – | – | inhibition (INH) [7]: 33%; inhibition (INH) [8]: 38.8%; inhibition at 400 µM [9]: ≥ 25% |
| O=C(O)CCCc1ncc2c3c1CCCN3CCC2 | 37.2 | 33.2 | ≥ 25 | – |
| Nc1ccn([C@@H]2CS[C@H](CO)O2)c(=O)n1 [LAMIVUDINE] | – | – | – | inhibition (INH) [10]: 31.5 - 32.6%; inhibition (INH) [11]: 37.5% |
| O=C(O)CCC[C@@H]1N=CC2=C3[C@H]1CCCN3CCC2 | 30.8 | 16.8 | ≥ 25 | – |
| O=C1CCCC2=C3CCC[N+]4([O-])CCC[C@@H](CN12)[C@@H]34 (stereo partly specified) | – | – | – | inhibition (INH) [4]: 25.4%; inhibition (INH) [5]: 22.6%; inhibition at 1000 µM [6]: ≥ 25% |
| O=C1CCCC2=C3CCCN4CCC[C@@H](CN12)[C@@H]34 | 22.4 | 29.9 | ≥ 25 | – |
| O=C1CC[C@H]2[C@@H]3[C@H](CCCN13)CN1C(=O)CCC[C@H]21 | 32.5 | 18.3 | ≥ 25 | – |
| O=C1CCC[C@@H]2[C@H]3CCCN4CCC[C@@H](CN12)[C@H]34 | 26.3 | 17.7 | ≥ 25 | – |
| O=C1CCCN2CCC[C@](O)(CN3C(=O)CCC[C@H]13)C2=O | 14.1 | – | ≥ 25 | inhibition [2]: inactive |
| O=C1CCCN2CCC[C@](O)(C2=O)[C@H]2CCCC(=O)N2C1 | 46 | 40.4 | ≥ 25 | – |
| O=C(O)CCCC1=NCC2CCCN3CCCC1=C23 (racemic) | 29.8 | 15.1 | ≥ 25 | – |
| O=C1CCC[C@@H]2[C@H]3CCCN4CCC[C@H](CN12)[C@@H]34 [SOPHORIDINE] | 40.2 | 21.9 | ≥ 25 | – |
| O=C1CCC[C@@H]2[C@H]3CCCN4CCC[C@@H](CN12)[C@@H]34 [MATRINE] | 34.7 | 16.8 | ≥ 25 | – |
| O=C(CCCc1ncc2c3c1CCCN3CCC2)N1CCCCC1 | – | – | – | inhibition (INH) [7]: 44.3%; inhibition (INH) [8]: 38%; inhibition at 400 µM [9]: ≥ 25% |
